Structures can show the parent of a compound that is named as a salt.
Legend:
[1] = Genotoxicity in CHO cells assessed as mitotic inhibition at 0.62 ppm after 60 mins in dark followed by 5 W/m'2 UV irradiation for 30 mins; format: toxicity, cell-based, Cricetulus griseus; settings: chinese hamster, CHO cells; read-out: Activity
CHO [2] = test: Genotoxicity against CHO cells; format: toxicity, cell-based, Cricetulus griseus; settings: chinese hamster
CHO [3] = test: Genotoxicity against CHO cells after UV irradiation; format: toxicity, cell-based, Cricetulus griseus; settings: chinese hamster
Escherichia coli [4] = test: Phototoxicity against Escherichia coli at 100 ug/disk after irradiation with W/m'2 UV light; format: functional; settings: light or radiation study, read-out: IZ
Escherichia coli [5] = test: Phototoxicity against Escherichia coli at 100 ug/disk in dark; format: functional; settings: light or radiation study, read-out: IZ
Pseudomonas aeruginosa [6] = test: Phototoxicity against Pseudomonas aeruginosa at 100 ug/disk after irradiation with W/m'2 UV light; format: functional; settings: light or radiation study, read-out: IZ
Pseudomonas aeruginosa [7] = test: Phototoxicity against Pseudomonas aeruginosa at 100 ug/disk in dark; format: functional; settings: light or radiation study, read-out: IZ
Pseudomonas fluorescens [8] = test: Phototoxicity against Pseudomonas fluorescens at 100 ug/disk after irradiation with W/m'2 UV light; format: functional; settings: light or radiation study, read-out: IZ
Pseudomonas fluorescens [9] = test: Phototoxicity against Pseudomonas fluorescens at 100 ug/disk in dark; format: functional; settings: light or radiation study, read-out: IZ
Bacillus subtilis [10] = test: Phototoxicity against Bacillus subtilis at 100 ug/disk after irradiation with W/m'2 UV light; format: functional; settings: light or radiation study, read-out: IZ
Bacillus subtilis [11] = test: Phototoxicity against Bacillus subtilis at 100 ug/disk in dark; format: functional; settings: light or radiation study, read-out: IZ
Enterococcus faecalis [12] = test: Phototoxicity against Streptococcus faecalis at 100 ug/disk after irradiation with W/m'2 UV light; format: functional; settings: light or radiation study, read-out: IZ
Enterococcus faecalis [13] = test: Phototoxicity against Streptococcus faecalis at 100 ug/disk in dark; format: functional; settings: light or radiation study, read-out: IZ
Staphylococcus aureus [14] = test: Phototoxicity against Staphylococcus aureus at 100 ug/disk after irradiation with W/m'2 UV light; format: functional; settings: light or radiation study, read-out: IZ
Staphylococcus aureus [15] = test: Phototoxicity against Staphylococcus aureus at 100 ug/disk in dark; format: functional; settings: light or radiation study, read-out: IZ
Candida albicans [16] = test: Phototoxicity against Candida albicans at 100 ug/disk after irradiation with W/m'2 UV light; format: functional; settings: light or radiation study, read-out: IZ
Candida albicans [17] = test: Phototoxicity against Candida albicans at 100 ug/disk in dark; format: functional; settings: light or radiation study, read-out: IZ
Saccharomyces cerevisiae [18] = test: Phototoxicity against Saccharomyces cerevisiae at 100 ug/disk after irradiation with W/m'2 UV light; format: functional; settings: light or radiation study, read-out: IZ
Saccharomyces cerevisiae [19] = test: Phototoxicity against Saccharomyces cerevisiae at 100 ug/disk in dark; format: functional; settings: light or radiation study, read-out: IZ

Compound: c1ccc2c(c1)[nH]c1cnccc12 [NORHARMANE]
- inhibition at 0.5 h, 0.62 ppm [1]: 0%

Compound: O=C1C[C@@H]2OCC=C3CN4CC[C@]56c7ccccc7N1[C@H]5[C@H]2[C@H]3C[C@H]46 [STRYCHNINE]
- Activity (CHO [2]): Not Active
- Activity (CHO [3]): Not Active

Compound: O=C1C[C@@H]2OCC=C3CN4CC[C@]56c7ccccc7N1[C@H]5[C@H]2[C@H]3C[C@H]46 [STRYCHNINE SULFATE]
- zone of inhibition at 100 µg/disc (Escherichia coli [4]): 0 mm
- zone of inhibition at 100 µg/disc (Escherichia coli [5]): 0 mm
- zone of inhibition at 100 µg/disc (Pseudomonas aeruginosa [6]): 0 mm
- zone of inhibition at 100 µg/disc (Pseudomonas aeruginosa [7]): 0 mm
- zone of inhibition at 100 µg/disc (Pseudomonas fluorescens [8]): 0 mm
- zone of inhibition at 100 µg/disc (Pseudomonas fluorescens [9]): 0 mm
- zone of inhibition at 100 µg/disc (Bacillus subtilis [10]): 0 mm
- zone of inhibition at 100 µg/disc (Bacillus subtilis [11]): 0 mm
- zone of inhibition at 100 µg/disc (Enterococcus faecalis [12]): 0 mm
- zone of inhibition at 100 µg/disc (Enterococcus faecalis [13]): 0 mm
- zone of inhibition at 100 µg/disc (Staphylococcus aureus [14]): 0 mm
- zone of inhibition at 100 µg/disc (Staphylococcus aureus [15]): 0 mm
- zone of inhibition at 100 µg/disc (Candida albicans [16]): 0 mm
- zone of inhibition at 100 µg/disc (Candida albicans [17]): 0 mm
- zone of inhibition at 100 µg/disc (Saccharomyces cerevisiae [18]): 0 mm
- zone of inhibition at 100 µg/disc (Saccharomyces cerevisiae [19]): 0 mm
